The target of assay [1] is T1, GLYT1-mediated synaptosomal glycine transport (Rattus norvegicus, UniProt P28572).
T1 construct: Synaptosomal P2 fractions were prepared from cerebral cortex+hippocampus of Sprague-Dawley rats; from tissue; host or cells: rat cerebral cortex + hippocampus, P2 synaptosomal fraction
T1 sequence (P28572 1-638): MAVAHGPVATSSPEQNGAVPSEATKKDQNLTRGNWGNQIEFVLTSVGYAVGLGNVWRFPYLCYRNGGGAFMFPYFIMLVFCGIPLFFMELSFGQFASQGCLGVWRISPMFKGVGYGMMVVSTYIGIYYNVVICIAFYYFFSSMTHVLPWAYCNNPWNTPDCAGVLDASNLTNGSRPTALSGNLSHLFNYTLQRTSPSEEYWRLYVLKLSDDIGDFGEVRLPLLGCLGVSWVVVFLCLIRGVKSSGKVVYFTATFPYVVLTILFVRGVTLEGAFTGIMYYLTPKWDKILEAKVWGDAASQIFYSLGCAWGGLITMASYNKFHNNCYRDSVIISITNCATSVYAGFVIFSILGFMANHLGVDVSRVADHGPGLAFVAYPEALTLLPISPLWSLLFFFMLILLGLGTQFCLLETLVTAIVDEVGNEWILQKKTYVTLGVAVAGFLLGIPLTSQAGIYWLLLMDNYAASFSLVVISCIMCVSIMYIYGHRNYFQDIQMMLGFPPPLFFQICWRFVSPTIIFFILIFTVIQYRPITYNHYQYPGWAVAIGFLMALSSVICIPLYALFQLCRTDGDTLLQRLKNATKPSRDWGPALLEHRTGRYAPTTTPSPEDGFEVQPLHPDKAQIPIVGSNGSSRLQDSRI
Kind of assay: Inhibition of [3H]glycine uptake in P2 synaptosomal fractions. The assay is classed as biochemical, Sprague-Dawley rats. As to conditions: 100 μg/ml. As to the method:
Synaptosomal P2 fractions were prepared from cerebral cortex+hippocampus of Sprague-Dawley rats (200-250 g). Brain tissue was homogenized in 0.32 M sucrose in Tris-HCl buffer (pH 7.4), and centrifuged at 1,000×g for 10 min at 4° C. in a Sorvall 5C centrifuge. The supernatant was then centrifuged at 14,000×g for 10 min and the pellet resuspended in artificial CSF having the following composition (mM): NaCl, 125; KCl, 3; MgSO4, 1.2; CaCl2, 1.2; NaH2PO4, 1; NaHCO3, 22; glucose, 10. Homogenate was aerated with 95% O2/5% CO2 until use. 1 ml aliquots of homogenate were preincubated with specific concentrations of glycineamide derivatives, following which incubation was initiated by the addition of 10 μl of 10 μM [^3H]glycine (DuPont/NEN or Sigma, spec. act.≈45 Ci/mmol) to obtain a final concentration of 100 nM. Nonspecific binding was determined in the presence of 10 mM sarcosine. Following 5 min, incubation was terminated by filtration under reduced pressure using a Brandel 24-well cell harvester and Whatman GF-B filters. Radioactivity was determined by scintillation counter with approximate efficiency of 50%.

The test system of assay [2] is PCP-induced hyperactivity. Kind of assay: Inhibition of PCP-induced locomotor hyperactivity. The assay is classed as in vivo, BALB/c mice. The settings on record: for inhibition of PCP-induced hyperactivity: 100 mg/kg i.p. pretreatment, summed activity over 90 min. The protocol: (§1) Behavioral studies were performed using BALB/c mice (25 g) of either sex. Rodent activity was monitored using a photocell-based activity meter (Columbus Instruments Auto-Track System, Columbus, Ohio). Animals were placed in test cages and allowed to accommodate overnight. […] 30 min. after pretreatment, animals were injected with either PCP (5 mg/kg i.p.) or amphetamine (5 mg/kg s.c.). Activity was then monitored for an additional 90 minutes. For statistical analyses, summed activity over the 90 min. following PCP/amphetamine injection was used as a measure of drug-induced hyperactivity.

In assay [3] the test system is PCP-induced hyperactivity. As to conditions: cited from earlier work.
Assay [4] has as its system amphetamine-induced hyperactivity. As to the kind of experiment: Effect on amphetamine-induced locomotor hyperactivity. Format: in vivo, BALB/c mice. As to conditions: GDA 50 mg/kg i.p.; amphetamine 5 mg/kg. As to the method:
as §1

Assay [5] is described as follows: Double blind, placebo-controlled crossover study of D-cycloserine in schizophrenia (PANSS). The assay is classed as in vivo, human. As to conditions: D-cycloserine 50 mg/day, 6 weeks.

Like-named read-outs stand apart in the source and are kept apart here.

Take glycylhexylamide [G6A]: the “effect on GLYT1-mediated transport at single fixed concentration” value (shortened to “effect on GLYT1-mediated transport”) in assay [1] is listed as “significant potentiation”. In assay [2] (PCP 5 mg/kg i.p.), the “inhibition of PCP-induced hyperactivity” value was “did not significantly inhibit”. The “inhibition of PCP-induced hyperactivity (early study, Toth et al., 1986)” value in assay [3] (literature) is “not to significantly inhibit”.
Consider `CCCCCCCCCCCNC(=O)CN` [G11A, glycylundecylamide], for which the “effect on GLYT1-mediated transport” value in assay [1] is on record as “significant inhibition”.
Regarding `CCCCCCCCCCCCCNC(=O)CN` [G13A, glycyltriscadecylamide], the “effect on GLYT1-mediated transport” value in assay [1] is “significant inhibition”. The “inhibition of PCP-induced hyperactivity” value in assay [2] (PCP 5 mg/kg i.p.) is on record as “Significant reductions”.
On to `CCCCCCCCNC(=O)CN` [G8A, glycyloctylamide], for which the “effect on GLYT1-mediated transport” value in assay [1] was “no significant effect”.
With `CCCCCCCCCCCCNC(=O)CN` [GDA, glycyldodecylamide], the “effect on GLYT1-mediated transport” value in assay [1] is given as “significant inhibition”. Besides, the “PCP-induced hyperactivity, % of control (PCP alone) levels” value in assay [2] (50 mg/kg, PCP 5 mg/kg i.p.) is listed as “below 70 % of control”; in assay [2] (100 mg/kg, PCP 5 mg/kg i.p.), “below 50 % of control”. The “inhibition of PCP-induced hyperactivity” value in assay [2] (PCP 5 mg/kg i.p.) is reported as “Significant reductions”. The “effect on hyperactivity induced by PCP” value in assay [2] (GDA 50 mg/kg i.p., PCP 5 mg/kg i.p.) is “significantly reduced”. In assay [2] (GDA pretreatment 50 mg/kg i.p.), the “effect on basal activity” value is recorded as “did not significantly affect”. Besides, the “potency in reversing PCP-induced hyperactivity relative to glycine (Toth et al., 1986)” value in assay [3] (early preclinical studies) is on record as “significantly more potent than glycine”. The “doses inhibiting PCP-induced hyperactivity (prior studies)” value in assay [3] (i.p., prior studies) is 50 to 200 mg/kg. In addition, in assay [4], the “effect on hyperactivity induced by amphetamine” value is reported as “not significantly altered”.
On to `N[C@@H]1CONC1=O` [D-cycloserine], for which, in assay [5], the “change in general psychopathology scores (PANSS)” value is on record as “did not change significantly”, the “change in positive symptoms (PANSS)” value is on record as “did not change significantly” and the “mean decrease in negative symptoms” value was 9.2%. In addition, the “reduction in negative symptoms (PANSS)” value in assay [5] (mean±SD) is reported as 3.6±3.7 point.
Consider `NCC(=O)O` [glycine], for which the “change in positive symptoms (PANSS)” value (beginning to end of glycine treatment) is on record as “did not change significantly”. Moreover, under “end of glycine treatment (beginning 25.7±7.0), mean±SD”, the “positive symptoms score at end of treatment” value is listed as 22.0±4.0 points. The “general psychopathology score at end of treatment” value (end of glycine treatment (from 56.0±19.4), mean±SD) is 43.0±13.8 points. Under “glycine 0.8 g/kg/day, 6 weeks”, the “decrease in general psychopathology symptoms” value came out at 23.2% and the “mean reduction in negative symptoms” value was found to be 28.5%. The “reduction in negative symptoms (PANSS)” value (glycine 0.8 g/kg/day, 6 weeks, 7 neuroleptic-resistant schizophrenia subjects, mean±SD) came out at 11.3±3.6 point. Also, the “change in general psychopathology (PANSS)” value (glycine 0.8 g/kg/day, 6 weeks, mean±SD) turned out to be 13.0±7.7 point. For the same compound, the “degree of reduction in negative symptoms relative to D-cycloserine treatment” value (same subjects, change scores compared across the two trials) is recorded as 3 fold.
`CCCCCCCCCCNC(=O)CN` [G10A, glycyldecylamide]: the “effect on GLYT1-mediated transport” value in assay [1] is “significant inhibition”. Further, in assay [2] (PCP 5 mg/kg i.p.), the “inhibition of PCP-induced hyperactivity” value is “Significant reductions”.
